How the values were obtained:
CCRF-CEM = assay: Cytotoxic concentration towards CEM cells; type: functional; settings: Homo sapiens
[1] = Effective molar concentration required to inhibit the replication of HIV-1 in human peripheral blood mononuclear cells by 50% (PBMC) was determined; type: functional
[2] = Cytotoxic concentration towards peripheral blood mononuclear cells; type: functional; settings: Homo sapiens
[3] = target: Human immunodeficiency virus type 1 reverse transcriptase (Human immunodeficiency virus 1, UniProt Q72547); assay: Tested for the inhibition towards HIV-reverse transcriptase

Structure (SMILES)	EC50 [1] [µM]	IC50 [3] [µM]	CC50 (CCRF-CEM) [µM]	CC50 [2] [µM]
COC(=O)[C@H](Cc1c[nH]c2ccccc12)NP(=O)(OC)OCC1OC(n2cc(C)c(=O)[nH]c2=O)CC1N=[N+]=[N-] (stereo partly specified)	0.3	–	> 50	> 50
COC(=O)[C@H](Cc1ccccc1)NP(=O)(O)OCC1OC(n2cc(C)c(=O)[nH]c2=O)CC1N=[N+]=[N-] (stereo partly specified)	0.6	> 100	> 100	> 100
COC(=O)[C@H](Cc1c[nH]c2ccccc12)NP(=O)(OCCC#N)OCC1OC(n2cc(C)c(=O)[nH]c2=O)CC1N=[N+]=[N-] (stereo partly specified)	0.4	> 100	> 100	> 100
COC(=O)[C@H](Cc1ccccc1)NP(=O)(OCCC#N)OCC1OC(n2cc(C)c(=O)[nH]c2=O)CC1N=[N+]=[N-] (stereo partly specified)	> 1	> 100	> 100	> 100
COC(=O)[C@H](Cc1ccccc1)NP(=O)(OC)OCC1OC(n2cc(C)c(=O)[nH]c2=O)CC1N=[N+]=[N-] (stereo partly specified)	0.09	–	> 50	> 100

Compounds with a lower EC50 [1], results first:

EC50 [1] [µM]	IC50 [3] [µM]	Structure (SMILES)	CC50 (CCRF-CEM) [µM]	CC50 [2] [µM]
0.01	> 100	COC(=O)[C@H](Cc1c[nH]c2ccccc12)NP(=O)(O)OC[C@H]1O[C@@H](n2cc(C)c(=O)[nH]c2=O)C[C@@H]1N=[N+]=[N-]	> 100	> 100
0.08	0.01	Cc1cn([C@H]2C[C@H](N=[N+]=[N-])[C@@H](CO)O2)c(=O)[nH]c1=O [ZIDOVUDINE]	14.3	> 100

— ChEMBL document CHEMBL1128792, “Aromatic amino acid phosphoramidate di- and triesters of 3-azido-3-deoxythymidine (AZT) are non-toxic inhibitors of HIV-1 replication” (Bioorg Med Chem Lett, 1995)
